In patent publication US20040082018A1, “Methods for using osteocalcin” (Athersys, Inc., priority 2002, published 2004):
No end group written: not given here.

Key:
Format in all cases: cell-based
CaR2 = molecular target: T1, CaR2 (Homo sapiens, UniProt Q5T6X5); test: FLIPR assay of intracellular Ca^++ in HEK293 clone HEK-167B12-2.1 stably expressing CaR2; conditions: for FLIPR response (change of intracellular Ca^++ levels): initial ligand testing in the transfected cells; for effect on OC/Ca^++ activation of CaR2: OC and Ca^2+ pre-incubated with / in the presence of lead ion
T1 construct: expressed in transfected cells
T1 sequence (Q5T6X5 19-926): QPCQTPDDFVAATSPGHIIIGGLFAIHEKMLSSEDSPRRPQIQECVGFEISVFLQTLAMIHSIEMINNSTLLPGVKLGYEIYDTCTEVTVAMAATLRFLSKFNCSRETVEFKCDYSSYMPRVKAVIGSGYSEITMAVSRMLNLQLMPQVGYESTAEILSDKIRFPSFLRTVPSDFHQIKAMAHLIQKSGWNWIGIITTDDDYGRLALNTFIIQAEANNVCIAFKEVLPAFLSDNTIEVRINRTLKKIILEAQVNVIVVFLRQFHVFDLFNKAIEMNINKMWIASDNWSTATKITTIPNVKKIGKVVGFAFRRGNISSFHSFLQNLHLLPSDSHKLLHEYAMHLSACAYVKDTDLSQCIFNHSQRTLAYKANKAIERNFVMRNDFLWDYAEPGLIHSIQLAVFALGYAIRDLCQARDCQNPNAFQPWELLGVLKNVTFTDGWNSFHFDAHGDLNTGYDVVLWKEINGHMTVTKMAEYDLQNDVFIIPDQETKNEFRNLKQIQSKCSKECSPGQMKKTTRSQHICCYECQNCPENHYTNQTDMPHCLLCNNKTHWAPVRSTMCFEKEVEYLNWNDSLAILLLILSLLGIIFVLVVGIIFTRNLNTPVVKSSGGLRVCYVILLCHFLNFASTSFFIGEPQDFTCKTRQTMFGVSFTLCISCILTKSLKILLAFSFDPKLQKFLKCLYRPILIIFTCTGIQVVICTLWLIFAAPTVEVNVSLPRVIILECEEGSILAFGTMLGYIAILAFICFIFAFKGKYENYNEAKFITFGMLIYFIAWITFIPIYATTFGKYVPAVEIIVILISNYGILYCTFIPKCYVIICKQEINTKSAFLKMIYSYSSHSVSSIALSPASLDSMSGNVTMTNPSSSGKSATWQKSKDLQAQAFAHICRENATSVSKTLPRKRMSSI
Description: To facilitate pharmacological experimentation, CaR2 cDNA was cloned into the mammalian expression vector pcDNA 3.1 (+) Neo with or without a COOH-terminal FLAG epitope. The transgene was introduced into the HEK293 cell line and stable transfectants were identified. These clones were analyzed for CaR2 expression by qPCR and Western blotting to identify those clones that were suitable for ligand identification. The clone HEK-167B12-2.1 was chosen for further experimentation.
Based on the homology to the characterized goldfish odorant receptor 5.24, initial studies investigated the ability of 18 naturally occurring amino acids to trigger changes of intracellular Ca^++ levels in the transfected cells, as measured with a fluorescent imaging plate reader (FLIPR).
(§1) Intracellular Ca^++ was measured using a fluorometric imaging plate reader (FLIPR) [Molecular Devices]. Cells were seeded at a density of 1×10^5/well (96-well plate) or 1×10^4/well (384-well plate) in collagen coated plates and incubated overnight at 36.9° C. with 5% CO2. Medium was aspirated from the plates and replaced with equal volumes of a no wash calcium dye (Molecular Devices) and modified Hank's buffered saline solution [Ca^2+-free, Mg^2+-free] (140 mM NaCl, 5.4 mM KCl, 0.64 mM KH2PO4, 3 mM NaHCO3, 5.5 mM C6H12O6, 20 mM HEPES, 2.5 mM Caprylic acid (or 2.5 mM probenecid)). The plates were incubated for 1 hour at 36.9° C. with 5% CO2. FLIPR was used to measure changes in intracellular calcium as relative fluorescence upon activation by ligand.

CaR = molecular target: T2, CaR (Homo sapiens, UniProt P41180); test: Ca^++ response of HEK 293 cells that express the previously characterized CaR
T2 construct: expressed in transfected cells; host or cells: HEK 293
T2 sequence (P41180 20-1078): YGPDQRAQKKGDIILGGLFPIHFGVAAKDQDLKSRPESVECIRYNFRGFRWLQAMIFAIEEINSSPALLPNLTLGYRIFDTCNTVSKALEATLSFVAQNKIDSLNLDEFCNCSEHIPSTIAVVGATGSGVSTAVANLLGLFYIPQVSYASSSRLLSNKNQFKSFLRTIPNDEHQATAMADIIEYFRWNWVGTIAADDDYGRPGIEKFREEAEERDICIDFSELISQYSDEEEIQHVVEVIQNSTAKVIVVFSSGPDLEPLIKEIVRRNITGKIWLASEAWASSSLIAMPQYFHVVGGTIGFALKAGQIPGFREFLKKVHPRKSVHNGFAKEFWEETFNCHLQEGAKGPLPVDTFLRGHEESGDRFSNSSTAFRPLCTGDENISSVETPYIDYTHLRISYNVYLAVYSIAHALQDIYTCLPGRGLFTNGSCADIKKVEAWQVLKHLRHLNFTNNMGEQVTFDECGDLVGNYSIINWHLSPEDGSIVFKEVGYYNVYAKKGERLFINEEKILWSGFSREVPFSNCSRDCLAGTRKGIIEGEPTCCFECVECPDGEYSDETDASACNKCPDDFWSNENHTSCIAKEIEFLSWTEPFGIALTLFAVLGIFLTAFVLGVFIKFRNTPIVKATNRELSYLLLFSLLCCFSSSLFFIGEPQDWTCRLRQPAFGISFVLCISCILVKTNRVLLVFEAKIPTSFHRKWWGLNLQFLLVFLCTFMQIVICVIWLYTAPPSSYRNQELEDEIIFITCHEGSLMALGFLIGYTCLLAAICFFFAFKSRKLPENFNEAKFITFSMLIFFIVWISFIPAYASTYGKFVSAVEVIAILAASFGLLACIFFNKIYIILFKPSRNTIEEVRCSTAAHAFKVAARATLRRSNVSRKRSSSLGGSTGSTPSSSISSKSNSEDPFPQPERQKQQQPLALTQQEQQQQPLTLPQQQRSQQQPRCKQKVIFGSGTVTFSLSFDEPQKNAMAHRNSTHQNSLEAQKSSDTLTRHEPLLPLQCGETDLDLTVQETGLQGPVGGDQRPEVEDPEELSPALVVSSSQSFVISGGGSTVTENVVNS
Description: as §1
(§2) Also, the apical side of cells lining tubules in Henle's loop in kidney and in epithelial cells lining prostate ducts are microenvironments where CaR2 would encounter higher than standard extracellular Ca^++.

parental HEK293 cells = test: FLIPR assay of intracellular Ca^++ in parental HEK293 cells that do not express CaR2
Description: as §1, §2

[Ca+2] [Ca^++, calcium]
activation of CaR2 (CaR2; 10 mM Ca^++): modest activation
activation of CaR2 (CaR2; 40 mM Ca^++): robustly activated
EC50 (CaR2; Ca^++ as activating ligand, clone expressing CaR2): 85 mM
calcium level causing a marked increase in fluorescence signal, hence intracellular Ca^++ (CaR2; clone expressing CaR2): > 20 mM
FLIPR response (change of intracellular Ca^++ levels) (CaR2): failed to elicit a positive FLIPR response
EC50 (CaR; transfected HEK 293 cells): 4.1 mM
increase in fluorescence signal by high calcium levels (parental HEK293 cells; parental cell line, >20 mM calcium): not observed

NCCCC(=O)O [GABA]
FLIPR response (change of intracellular Ca^++ levels) (CaR2): failed to elicit a positive FLIPR response

CN[C@H](CC(=O)O)C(=O)O [NMDA]
FLIPR response (change of intracellular Ca^++ levels) (CaR2): failed to elicit a positive FLIPR response

[Pb+2] [Pb^2+]
effect on OC/Ca^++ activation of CaR2 (CaR2): reversed
effect on OC/Ca^++ activation of CaR2 (CaR2; listed as Pb^++): blocked

osteocalcin (YLYQWLGAPVPYPDPLEPRREVCELNPDCDELADHIGFQEAYRRFYGPV; ends and bridges not checked; cysteine pairing not given here; UniProt P02818 52-100, looked up)
OC activation of CaR2 (CaR2; OC pre-incubated with 10 mM Ca^++): activates CaR2 when pre-incubated with 10 mM Ca^++ in a dose-dependent manner
effect of OC on CaR2 activation by calcium (CaR2; in the presence of osteocalcin): activated at lower calcium levels and the activation by high mM calcium was potentiated
synergistic effect of Ca^++ and osteocalcin on CaR2, dependence on pre-incubation (CaR2; pre-incubated versus both ligands added separately): only witnessed when calcium is pre-incubated with OC, but not when both ligands are added separately
synergistic effect of Ca^++ and osteocalcin (CaR; OC and Ca^++ added to HEK293 cells that express CaR): not observed
synergistic effect of Ca^++ and osteocalcin (parental HEK293 cells; OC and Ca^++ added to parental HEK293 cells): not observed
